Data from a melting point compilation (Tetko et al.; mined from patent text by program, amines drawn as free bases though some values may be those of a salt).

Row | melting point | SMILES
1 | 190 to 240 °C | O=C1C(=O)c2ccc(-c3ccc(C(F)(F)F)cc3)cc2C2=C1SCC1(CCNCC1)O2
2 | 208 to 211 °C | O=C(NCCC1CCCCC1)c1cc(-c2ncc(Cl)cc2C(=O)O)ccc1Cl
3 | 71 to 78 °C | CCCN(CCC)CC1CCCCN1CCNC(=O)N1c2ccccc2C(=O)Nc2cccc(Cl)c21 (stereo not given)
4 | 96 to 98 °C | CN1CCC(c2nn(CCCO)c3ccccc23)CC1
5 | 78 to 85 °C | COC(=O)c1ccc(CNC(=O)C2Cc3ccccc3N2S(=O)(=O)c2ccc(-c3cccc(C(F)(F)F)c3)cc2)c(OC)c1 (stereo not given)
6 | 148 to 149 °C | N#CN=CNc1nc(OCc2ccc(F)cc2)ncc1F
7 | 138 to 140 °C | COc1ccccc1CNc1cccc(-c2ccnc3c(C(=O)c4cccs4)cnn23)c1
8 | 74 to 76 °C | COc1ncnc(N2CCCC2)c1Cc1cccc(F)c1
9 | 153 to 155 °C | CCCCOc1cc(/C=C/C(=O)O)n(Cc2ccc(C(F)(F)F)cc2)n1
10 | 123 to 126 °C | COc1cccc(C2C(CO)CC(=O)N2c2ccccc2)c1 (stereo not given)
11 | 81 to 83 °C | CC(=O)Oc1c(C)ccc2ccccc12
12 | 41 to 42 °C | Cc1cc(CCCCCOc2c(Cl)cc(C3=NCCO3)cc2Br)on1
13 | 236 to 237 °C | Cc1nc(-c2ccc(Cl)cc2)sc1C(N)=O
14 | 100 to 105 °C | O=C1c2cccc3cccc(c23)C1Br (stereo not given)
15 | 148 to 150 °C | CC(Cc1ccc(OCC(=O)O)c(F)c1)NS(=O)(=O)c1ccccc1 (stereo not given)
16 | 141 to 143 °C | CCOC(=O)c1ccc(-c2cccc(CN)n2)cc1
17 | 201 to 202 °C | COC(=O)NN=C(C)c1nc(-c2ccccc2)[nH]c1C
18 | 54 to 55 °C | FC(F)(F)c1cc(CNCc2cc3ccccc3nc2N2CCN(CC3CCCCC3)CC2)cc(C(F)(F)F)c1
19 | 210 to 212 °C | NC1CCC(C(=O)Nc2cccc(-c3cccc4c3/C(=C/c3ccc[nH]3)C(=O)N4)c2)CC1 (stereo not given)
20 | 257 to 261 °C | CC(C)n1nc(-c2c(OCC(N)=O)nc(N)nc2-c2ccccc2)ccc1=O
21 | 79 to 80 °C | NNc1ccc(C(F)(F)F)c(Cl)c1Cl
22 | 145 °C | OC(CNC1CCC1)c1cc(C(F)(F)F)nc2c(C(F)(F)F)cccc12 (stereo not given)
23 | 168 to 170 °C | Cn1nc(COc2ccc(C=O)cc2)c2ccccc2c1=O
24 | 177 to 178 °C | C=C(C)C(=O)Nc1cccc(OC(=O)Nc2ccccc2)c1
25 | 89.5 to 91.5 °C | Cn1c([N+](=O)[O-])cnc1C1=NOC2CCCC12 (stereo not given)
26 | 224 to 227 °C | CCc1ccc(Br)c(CC)c1-n1cncc1C(=O)O
27 | 197 to 199 °C | N#CC(C#N)=C1Sc2nc3ccc(C(F)(F)F)cc3nc2S1

Row | melting point | SMILES
28 | 231 to 234 °C | COC(=O)c1cc(O)c2cc(N3CCOCC3)ccc2c1
29 | 315 to 317 °C | Cc1c(-c2ccc(-c3ccccc3F)cc2)nc2ccc(F)cc2c1C(=O)O
30 | 55 to 56 °C | Cc1nc(-c2ccc(OCc3cccnc3)cc2)no1
31 | 202 to 204 °C | CCCC1C(=O)C(NC(=O)C2CCc3ccccc3C2)=C(N)C(CCC)C1=O (stereo not given)
32 | 150 to 155 °C | Cc1cc(C)c2cccc(OCc3c(Cl)ccc(S(=O)(=O)N4CCC[C@H]4C(=O)N4CCN(C(=O)c5ccc(C=NN)cn5)CC4)c3Cl)c2n1
33 | 215 to 217 °C | COc1cccc2c1CC1CC(CCN3CCC(c4c[nH]c5ccccc45)CC3)CN(C)C1C2 (stereo not given)
34 | 58 to 60 °C | CCN(CC(C)Nc1c(C)cccc1C)C(C)=O (stereo not given)
35 | 194 to 195 °C | CCOC(=O)c1cc2cc(OCCCS(C)(=O)=O)cc(NS(=O)(=O)c3ccccn3)c2[nH]1
36 | 192 to 195 °C | Cc1ccccc1-c1noc2c3c(c(Cl)cc12)OC(C(=O)O)C3 (stereo not given)
37 | 180 to 181 °C | CCOCc1nc2c(N)nc3ccccc3c2n1CCc1cc(-c2ccc(F)cc2)no1
38 | 146 to 148 °C | CCOc1ccc(C(=O)N2CCNC2=Nc2c(Cl)cccc2Cl)cc1
39 | 315 to 325 °C | CC(C)c1ccc2c(c1)c(=O)[nH]c1c2c2ccccc2n1C
40 | 159 to 160 °C | CCCCNC(=O)Nc1ccc(SCC)cc1C(=O)NCC1CCN(C(c2ccccc2)c2ccccc2)CC1
41 | 100 to 104 °C | COc1ccc(C(C)C)cc1-c1cc(-c2nnnn2C2CCN(C(=O)OC(C)(C)C)C2)c(O)cc1O (stereo not given)
42 | 174 to 175 °C | CC(c1ccc(-c2ccccc2)c(F)c1)c1nc(N)no1 (stereo not given)
43 | 87 to 89 °C | CCOC(OCC)c1cn2cccc(CO)c2n1
44 | 112 to 114 °C | COc1ccc(CC(=O)O)cc1C1CCCCC1
45 | 234 °C | CC(C)(CO)NS(=O)(=O)c1ccc(Cl)c(NC(=O)c2cnn3c(C(F)F)cc(-c4ccc(C(F)(F)F)cc4)nc23)c1
46 | 93 to 94 °C | COc1cc2c(cc1OC)C(Oc1ccc(C(F)(F)F)cc1)CN(CC#N)CC2 (stereo not given)
47 | 93 to 95 °C | OCCOc1ccc2cccnc2c1
48 | 168 to 169 °C | C[C@@H](n1cnc2cc(C#N)ccc2c1=O)[C@](O)(Cn1cncn1)c1ccc(F)cc1F
49 | 238 to 240 °C | O=C1CCC(c2ccc(NC(=O)CCN3CCC(c4ccccc4)CC3)cc2)=NN1
50 | 46 to 47.5 °C | CCCCCCCCCc1cnc(-c2ccc(O)c(F)c2)nc1
51 | 203 to 205 °C | CCOC(=O)C[C@@H](CCCc1ccncc1)C(=O)N[C@H]1Cc2cn(c3ccccc23)CCOCCNC1=O
52 | 194 to 196 °C | N#CCC(=O)Nc1ccc(C(F)(F)F)cc1
53 | 196 to 198 °C | CC(C)C[C@H](NC(=O)[C@H](Cc1c[nH]cn1)NC(=O)[C@H](Cc1cccc2ccccc12)NC(=O)OCc1ccccc1)[C@@H](O)CCO

Further lines, the compound ahead of its results:

Row | SMILES | melting point
54 | CCc1sc2c(c1S(=O)(=O)c1ccc(O)cc1)CN(Cc1ccccc1Cl)CC2 | 176 °C
55 | CON(Cc1ccc(Cl)c(Cl)c1)C(=O)C1=C(O)C(=O)N(C)C1 | 149 °C
56 | COc1ccc2c(c1)CN(C(=O)N(C)C)N=C2Cc1c(Cl)cncc1Cl | 160 to 162 °C
57 | CC(=O)c1ccc(N)c(C(=O)c2ccccc2)c1 | 158 to 161 °C
58 | CNC1Oc2cc(Cl)cc(-c3ccc(Cl)cc3C)c2O1 (stereo not given) | > 250 °C
59 | CC(=O)CN1CCc2c(c(=O)oc3cc(C)c([N+](=O)[O-])cc23)C1 | 166 to 168 °C
60 | O=CC1C(c2ccc(F)cc2)CCC12C=Cc1ccccc12 (stereo not given) | 115 to 118 °C
61 | CSC1=Nc2cc(Cl)ccc2N(C)c2cscc21 | 156 to 158 °C
62 | NCCCCCC(=O)NC(CCCCN)C(=O)N(NC(=O)OCc1ccccc1)C(=O)OCc1ccccc1 (stereo not given) | 167 to 168 °C
63 | CS(=O)(=O)Nc1ccc(OC2SCC(O)C(O)C2O)cn1 (stereo not given) | 201 to 204 °C
64 | CCC(=O)c1ccc2c(c1)N(C(C)=O)c1ccccc1S2 | 146 to 147 °C
65 | CCCC[C@]1(CC)CS(=O)(=O)c2cc(OC)c(Br)cc2[C@@H](c2ccccc2)N1 | 132 to 134 °C
66 | COC1=C(C#N)C(=O)N(C)C1=O | 123 to 125 °C
67 | CCc1nc2c(N)nc(C)c(C)c2n1CCOCCNC(=O)N1CCOCC1 | 182 to 184 °C
68 | C[C@@H](NC(=O)[C@H](Cc1ccc(OC(C)(C)C)cc1)NC(=O)OC(C)(C)C)C(=O)O | 186 to 187 °C
69 | O=C(O)C=CC(=O)N(CC1CO1)NCC1CO1 (stereo not given) | 58 °C
70 | COC(=O)c1ccc(OCCNC(=O)C2Cc3ccccc3N2S(=O)(=O)c2ccc(-c3ccc(F)cc3OC)cc2)cc1F (stereo not given) | 73 to 80 °C
71 | O=C1OC(=O)c2c1cccc2N1C(=O)CCC1=O | 202 to 205 °C
72 | O=C(O)Cc1cccc(OCCCN(Cc2cccc(F)c2F)CC(c2ccccc2)c2ccccc2)c1 | 148 °C
73 | CCOC(=O)C1CNc2cc(NS(C)(=O)=O)ccc2O1 (stereo not given) | 149 to 151 °C
74 | CC(=O)c1c(O)cc(C)cc1O | 146 to 148 °C
75 | CCCCC(=O)Nc1ccc(C(=O)CCC(=O)O)cc1 | 153 to 155 °C
76 | CCCCCCCCCCCCc1cc2c(s1)NC(=O)CN=C2c1ccccc1Cl | 119 to 121 °C
77 | N#Cc1ccc(-c2ccc(-c3ccc(-c4ccc(C#N)cc4)o3)o2)cc1 | 298 to 299 °C

Row | SMILES | melting point
78 | COc1cccc(N(CC(=O)OC(C)(C)C)C(=O)CCl)c1 | 110 °C
79 | CCOC(=O)CCN(C1(C(=O)O)CCCC1)S(=O)(=O)c1ccc(Oc2ccc(F)cc2)cc1 | 164 to 166 °C
80 | CC1(O)CCC2(C)C(CCC3C2CCC2(C)C(c4cc(CO)on4)CCC32)C1 (stereo not given) | 198 to 200 °C
81 | O=[N+]([O-])c1ccc(Sc2ncccn2)cc1 | 103 to 104 °C
82 | CC(C)(C)OC(=O)NC(Cc1ccc(CO)cc1)c1cccnc1 (stereo not given) | 130 °C
83 | CCN(CC)CCNc1ccc(C)c2sc3ccc(OC)cc3c(=O)c12 | 81 to 82 °C
84 | CN(C)C(=N[N+](=O)[O-])N(Cc1cnc(Cl)s1)C(=S)Oc1ccccc1 | 161 to 162 °C
85 | CCN(CC)C(=O)Nc1cc(C(C)(C)C)on1 | 122 to 124 °C
86 | CSc1sc(C2NCCO2)c2c1C(=O)CC(C)(C)C2 (stereo not given) | 190 to 193 °C
87 | COc1cc(C=NN(C)C)c([N+](=O)[O-])cc1OC | 143 to 145 °C
88 | Cc1c(NC(=O)CC(C)(C)C)c(C)c2c(c1C(=O)c1ccccc1)OC[C@@H]2c1ccc(C(C)C)cc1 | 205 to 206 °C
89 | CC(C)(C)OC(=O)/C(=C/c1ccccc1)C(=O)c1ccccc1O | 109 to 110 °C
90 | CC(C)(C#N)c1cc(Cc2cccnc2)cc(C(C)(C)C#N)c1 | 82 to 84 °C
91 | COc1ccc(N=Nc2ccc(O)c(C(=O)Nc3ccc4[nH]nnc4c3)c2)cc1 | 275 to 276 °C
92 | Nc1ccccc1Sc1ccc2c(c1)OCC(=O)N2 | 70 to 71 °C
93 | CCCCn1c2c(c3cc(OC)c(OC)cc3c1=O)C(=O)c1cc3c(cc1-2)OCO3 | 280 to 284 °C
94 | O=[N+]([O-])c1cn(CC(I)=C(I)I)c(Cl)c1Cl | 126 to 127 °C
95 | O=C1CC(O)CN1S(=O)(=O)c1ccc(N2CCCCCC2)cc1 (stereo not given) | 170 to 172 °C
96 | CCN1CCN(c2ccc(-c3[nH]nc4c3C(=O)c3c(NC(=O)NN5CCOCC5)cccc3-4)cc2)CC1 | 245 °C
97 | CCC1CC(C)(C)Oc2c1cc(C(C)=O)c(O)c2C (stereo not given) | 92 to 93 °C
98 | CC(C)(C)OCCOc1cc(NC(=O)OC(C)(C)C)c([N+](=O)[O-])cc1I | 113 to 116 °C
99 | O=C(NCCCO)c1cc(Br)c(Br)[nH]1 | 160 to 162 °C
100 | CC(=O)OC(C)(C(=O)O)c1ccc(-c2ccccc2)c(F)c1 (stereo not given) | 125 to 127 °C
